Values joined by “and” are separate entries in the source; they are usually repeats but may differ in a detail not shown here. Identical values can stand only once. Like-named read-outs stand apart in the source and are kept apart here.
Assays:
[1] = molecular target: T1, cluster 2a type streptokinase (Streptococcus pyogenes, UniProt A0A288R465); design: species or system group A streptococcal strain A614; conditions: cell-based; for fold lower IC50 compared to TXA and EACA: streptokinase cluster type 2a
Description: The pellet from a mid-log phase culture of the strain A614 (cluster 2a type) or A314 (cluster 2b type) was washed twice with PBS and bacteria were adjusted to an OD600 of 1.0 in HEPES-buffer (10 mM HEPES, 150 mM NaCl, 0.01% Tween 20, pH 7.4). 90 µl of bacterial cells, plasminogen (final concentration 6.7 µg/ml per well) and fibrinogen (final concentration 1 µM per well) were pre-mixed. Then inhibitory compounds (LA, PA, oleic, myristic, stearic, palmitic, arachidonic, arachidic, linolenic acid, TXA or EACA) were added. Stocks of LA and PA were prepared in methanol and then diluted in PBS. Stocks of arachidic, oleic, arachidonic, myristic, palmitic, stearic and linolenic acid were prepared in 60% DMSO/PBS and then diluted in PBS. The untreated control received the same amount of PBS as in case of TXA and EACA as control or the same amount of methanol diluted in PBS as in case of LA and PA, respectively, or the same amount of DMSO diluted in PBS as in case of the other commercially available fatty acids. Then 50 µl of the respective supernatant (supernatant from the strain A614 if cells from A614 were used, supernatant from the strain A314 were used in case of cells from the GAS strain A314) and 3.75 µl 10 mM S-2251 (Chromogenix) were added. The assay was incubated at 37 °C and measured at the beginning of the reaction and then every hour at 405 nm after 3 sec of shaking on a Tecan Sunrise ELISAReader using Magellan software. Each experiment was repeated three times. IC50 values were calculated using Microsoft® Excel software.

[2] = molecular target: T1, cluster 2a type streptokinase; experiment: biochemical; assay type: biochemical, group A streptococcal strain A614; conditions: supernatant-based; for IC50 / fold lower concentration for the same range of inhibition as oleic and linolenic acid: cluster 2a; for fold lower IC50-values than TXA and EACA: cluster 2a type streptokinase
[3] = molecular target: cluster 1 type streptokinase (Streptococcus pyogenes, UniProt P10520); assay type: biochemical, group A streptococcal strain A328; conditions: supernatant-based; for IC50: cluster 1; for fold lower IC50-values than TXA and EACA: cluster 1 type streptokinase
Sequence of cluster 1 type streptokinase (P00747 20-810): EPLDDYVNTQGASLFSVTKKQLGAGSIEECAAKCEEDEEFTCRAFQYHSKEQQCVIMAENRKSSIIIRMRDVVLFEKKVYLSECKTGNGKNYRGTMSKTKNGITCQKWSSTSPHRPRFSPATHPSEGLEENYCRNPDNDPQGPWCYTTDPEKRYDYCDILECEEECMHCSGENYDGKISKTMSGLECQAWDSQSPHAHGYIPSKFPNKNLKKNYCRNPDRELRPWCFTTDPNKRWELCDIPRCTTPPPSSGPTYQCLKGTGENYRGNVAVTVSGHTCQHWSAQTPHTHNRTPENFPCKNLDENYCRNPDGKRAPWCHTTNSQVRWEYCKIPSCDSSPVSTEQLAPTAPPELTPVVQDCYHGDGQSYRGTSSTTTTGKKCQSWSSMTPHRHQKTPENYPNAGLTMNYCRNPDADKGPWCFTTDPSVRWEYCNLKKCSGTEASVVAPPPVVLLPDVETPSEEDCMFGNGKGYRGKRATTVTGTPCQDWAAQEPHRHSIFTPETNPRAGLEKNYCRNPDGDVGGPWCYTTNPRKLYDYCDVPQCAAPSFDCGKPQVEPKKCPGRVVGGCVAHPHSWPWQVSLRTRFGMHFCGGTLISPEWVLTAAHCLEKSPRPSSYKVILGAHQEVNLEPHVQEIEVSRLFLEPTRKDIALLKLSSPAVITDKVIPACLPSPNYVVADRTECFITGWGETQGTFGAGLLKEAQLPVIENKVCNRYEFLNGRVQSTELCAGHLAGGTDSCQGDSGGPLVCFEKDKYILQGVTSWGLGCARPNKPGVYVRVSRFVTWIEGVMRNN
Sequence of cluster 1 type streptokinase (P10520 27-440): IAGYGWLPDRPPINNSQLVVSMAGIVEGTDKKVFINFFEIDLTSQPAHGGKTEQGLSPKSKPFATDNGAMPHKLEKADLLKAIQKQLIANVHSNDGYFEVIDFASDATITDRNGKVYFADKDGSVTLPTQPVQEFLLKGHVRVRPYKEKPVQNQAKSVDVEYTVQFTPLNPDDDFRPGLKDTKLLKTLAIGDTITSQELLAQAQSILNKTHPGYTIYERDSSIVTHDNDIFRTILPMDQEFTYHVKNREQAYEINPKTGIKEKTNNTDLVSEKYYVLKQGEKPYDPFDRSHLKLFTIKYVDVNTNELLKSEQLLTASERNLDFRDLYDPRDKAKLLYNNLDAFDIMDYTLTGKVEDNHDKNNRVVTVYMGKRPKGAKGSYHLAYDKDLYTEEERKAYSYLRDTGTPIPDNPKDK
Description: An overnight culture of the strain A328 (cluster 1 type) or A614 (cluster 2a type) was diluted 1:10 in pre-warmed THY medium and grown to an OD600 of around 0.5 at 37 °C. […] The pellet was resuspended in Tris-HCl buffer (50 mM Tris pH 7.5). Then inhibitory compounds (LA, PA, oleic, myristic, stearic, palmitic, arachidonic, arachidic, linolenic acid, TXA or EACA) were added. Stocks of TXA and EACA were prepared in PBS. Stocks of LA and PA were prepared in methanol and then diluted in PBS. Stocks of arachidic, oleic, arachidonic, myristic, palmitic, stearic and linolenic acid were prepared in 60% DMSO/PBS and then diluted in PBS. The untreated control received the same amount of PBS as in case of TXA and EACA as control or the same amount of methanol diluted in PBS as in case of LA and PA, respectively, or the same amount of DMSO diluted in PBS as in case of the other commercially available fatty acids. […] The assay was run at 37 °C. The absorption was measured at the beginning of the reaction and then every hour at 405 nm after 3 sec of shaking on a Tecan Sunrise ELISAReader using Magellan software. Each experiment was repeated three times. IC50 values were calculated using Microsoft® Excel software.

[4] = molecular target: T2, staphylokinase (Staphylococcus aureus, UniProt P68801); experiment: Plasminogen assay with staphylokinase as activator of plasminogen; assay type: biochemical; conditions: staphylokinase 2 µg/ml; compared to untreated control
T2 construct: purchased Cedarlane Labs
T2 sequence (P68801 28-163): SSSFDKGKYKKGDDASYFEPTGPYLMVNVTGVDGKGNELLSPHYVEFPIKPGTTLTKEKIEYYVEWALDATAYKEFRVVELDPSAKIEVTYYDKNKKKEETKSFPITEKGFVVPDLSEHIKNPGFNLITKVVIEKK
Description: Supernatant of an overnight culture of the GAS strain A614 was used as this strain secretes a cluster 2a type streptokinase. 75 µl of the culture supernatant was added to the wells of a 96well plate followed by 69 µl PBS, 5 µl S-2251 (10 mM stock solution, chromogenic substrate for the detection of plasmin, Chromogenix) and 1 µl plasminogen (1 mg/ml stock solution, Biopur or Sigma). 1 µl of each myxobacterial extract or each myxobacterial compound (dissolved in methanol, 1 mM) was added to test possible inhibition of plasminogen activation. The assay was run at 37 °C. The absorption was measured at the beginning of the reaction and then every hour at 405 nm after 3 sec of shaking on a Tecan Sunrise ELISA Reader using Magellan software. The reaction was finished when untreated samples had reached an OD405nm of about 1.
The assay was conducted as described above using staphylokinase (Cedarlane Labs) as an activator of plasminogen (staphylokinase final concentration 2 µg/ml per well in 75 µl of PBS. Stocks of LA and PA were prepared in methanol and then diluted in PBS. The untreated control received the same amount of methanol diluted in PBS as in case of treatment with PA or LA. Each experiment was repeated three times.

[5] = system: S. pyogenes strain AP1; experiment: Clotting assay, escape of streptococci from clot (cluster 2a type streptokinase); assay type: cell-based; conditions: 30 µg/ml, after 4 h, p < 0.05
Description: To assess whether LA and PA influence the entrapment of bacteria within clots, a 50 ml overnight culture (THY medium) of the S. pyogenes strains AP1 or A666 was centrifuged at 4332 × g for 10 min. […] For clot induction, 100 µl citrate plasma, 100 µl of the respective bacterial suspension and 50 µl thrombin-reagent (Haemochrom Diagnostica) were used. […] Then clots were left untreated (treated with sodium citrate buffer only) or were treated with LA or PA (diluted in sodium citrate buffer). For clots formed with S. pyogenes strain A666, a final concentration of 60 µg/ml was used for both, LA and PA. For those formed with S. pyogenes strain AP1, a final concentration of 30 µg/ml was used. 50 µl of the supernatant of each sample were plated onto blood agar plates in serial dilutions at 0, 2 and 4 h after clot induction and incubated at 37 °C overnight. Colonies were counted the following day to assess the number of bacteria which had escaped the clot. […] Two independent experiments were performed. Standard deviations were calculated accordingly. Citrate plasma was obtained from healthy volunteers who gave their informed consent.

SMILES	fold lower IC50 compared to TXA and EACA [1] [fold]	IC50 [2]	fold lower concentration for the same range of inhibition as oleic and linolenic acid [2]	fold lower IC50-values than TXA and EACA [2]	IC50 [3]	fold lower IC50-values than TXA and EACA [3]	inhibition of staphylokinase-mediated plasminogen activation [4]	GAS escaped from the clot compared to the untreated clot [5]	IC50 ([1]; cluster 2a)
CCCCC/C=C\C/C=C\CCCCCCCC(=O)O [LA, linoleic acid]	250	156 µM and 149 µM	3–4 fold	500–1000 fold	46.6 µM and 46 µM	500–1000 fold	not inhibited	significantly lower amount of GAS escaped	–
CCCCCC/C=C\CCCCCCCC(=O)O [PA, palmitoleic acid]	250	91.6 µM and 105 µM	3–4 fold	500–1000 fold	40.9 µM	500–1000 fold	not inhibited	significantly lower amount of GAS escaped	359 µM and 471 µM
